In patent US8710065B2, “Tricyclic inhibitors of kinases” (AbbVie Inc., priority 2011, dated 2014):

These compounds were tested against T1, GST-tagged-Wee1 kinase (Homo sapiens, UniProt P30291) (assay: Wee1 time-resolved fluorescence equilibrium binding assay (displacement of Oregon Green-labeled ATP-competitive kinase probe)). Details: read-out: Wee-1 inhibition (Ki).
T1 construct: purchased Carnabio (Carna Biosciences) 05-177
Summary of the method: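 Time-resolved fluorescence equilibrium binding with GST-Wee1, measuring displacement of a rapidly reversible Oregon Green-labelled ATP-competitive probe by competitive inhibitors; values reported as Ki.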

T1 sequence (P30291 whole entry): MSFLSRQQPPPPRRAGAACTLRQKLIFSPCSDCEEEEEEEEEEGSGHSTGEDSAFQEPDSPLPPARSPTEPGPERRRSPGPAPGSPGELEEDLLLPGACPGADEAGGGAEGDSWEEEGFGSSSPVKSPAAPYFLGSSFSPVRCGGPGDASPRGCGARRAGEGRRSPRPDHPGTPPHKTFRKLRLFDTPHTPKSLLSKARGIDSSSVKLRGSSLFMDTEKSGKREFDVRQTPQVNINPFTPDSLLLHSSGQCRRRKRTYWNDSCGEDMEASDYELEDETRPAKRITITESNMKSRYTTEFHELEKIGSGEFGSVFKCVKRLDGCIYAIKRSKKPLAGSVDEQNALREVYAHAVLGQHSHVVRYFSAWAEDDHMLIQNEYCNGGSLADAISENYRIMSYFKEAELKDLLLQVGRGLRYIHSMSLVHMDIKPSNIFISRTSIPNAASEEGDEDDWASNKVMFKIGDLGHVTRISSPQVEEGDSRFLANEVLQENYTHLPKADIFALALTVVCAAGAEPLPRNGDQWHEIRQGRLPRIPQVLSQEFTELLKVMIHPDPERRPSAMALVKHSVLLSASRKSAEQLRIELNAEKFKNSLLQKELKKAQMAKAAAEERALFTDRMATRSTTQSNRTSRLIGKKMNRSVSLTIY

SMILES | Ki
CC(C)c1cc(Nc2ncc3c(=O)n(-c4ccccc4Cl)c4nccn4c3n2)ccc1N1CCN(C)CC1 [Example 157, 6-(2-chlorophenyl)-2-{[4-(4-methylpiperazin-1-yl)-3-(propan-2-yl)phenyl]amino}imidazo[1,2-a]pyrimido[5,4-e]pyrimidin-5(6H)-one] | < 10 nM
CC(=O)N1CCN(c2ccc(Nc3ncc4c(=O)n(-c5c(F)cccc5Cl)c5nccn5c4n3)cc2)CC1 [Example 158, 2-{[4-(4-acetylpiperazin-1-yl)phenyl]amino}-6-(2-chloro-6-fluorophenyl)imidazo[1,2-a]pyrimido[5,4-e]pyrimidin-5(6H)-one] | < 10 nM
CC1(C)CNCc2cc(Nc3ncc4c(=O)n(-c5c(F)cccc5Cl)c5nccn5c4n3)ccc21 [Example 159, 6-(2-chloro-6-fluorophenyl)-2-[(4,4-dimethyl-1,2,3,4-tetrahydroisoquinolin-7-yl)amino]imidazo[1,2-a]pyrimido[5,4-e]pyrimidin-5(6H)-one] | 10 to 100 nM
O=c1c2cnc(Nc3ccc4c(c3)CNCC43CC3)nc2n2ccnc2n1-c1c(Cl)cc(F)cc1Cl [Example 160, 6-(2,6-dichloro-4-fluorophenyl)-2-(2′,3′-dihydro-1′H-spiro[cyclopropane-1,4′-isoquinolin]-7′-ylamino)imidazo[1,2-a]pyrimido[5,4-e]pyrimidin-5(6H)-one] | < 10 nM
CCN1Cc2cc(Nc3ncc4c(=O)n(-c5ccccc5Cl)c5nccn5c4n3)ccc2C(C)(C)C1 [Example 161, 6-(2-chlorophenyl)-2-[(2-ethyl-4,4-dimethyl-1,2,3,4-tetrahydroisoquinolin-7-yl)amino]imidazo[1,2-a]pyrimido[5,4-e]pyrimidin-5(6H)-one] | < 10 nM
CC1(C)CN(CC(F)(F)F)Cc2cc(Nc3ncc4c(=O)n(-c5ccccc5Cl)c5nccn5c4n3)ccc21 [Example 162, 6-(2-chlorophenyl)-2-{[4,4-dimethyl-2-(2,2,2-trifluoroethyl)-1,2,3,4-tetrahydroisoquinolin-7-yl]amino}imidazo[1,2-a]pyrimido[5,4-e]pyrimidin-5(6H)-one] | 10 to 100 nM
CC1(C)CN(Cc2ccc(-n3ccnc3)cc2)Cc2cc(Nc3ncc4c(=O)n(-c5ccccc5Cl)c5nccn5c4n3)ccc21 [Example 163, 6-(2-chlorophenyl)-2-({2-[4-(1H-imidazol-1-yl)benzyl]-4,4-dimethyl-1,2,3,4-tetrahydroisoquinolin-7-yl}amino)imidazo[1,2-a]pyrimido[5,4-e]pyrimidin-5(6H)-one] | < 10 nM

Results, then the compound that gave them:

Ki | SMILES
< 10 nM | CC1(C)CN(CC2CCN(Cc3ccccc3)CC2)Cc2cc(Nc3ncc4c(=O)n(-c5ccccc5Cl)c5nccn5c4n3)ccc21 [Example 164, 2-({2-[(1-benzylpiperidin-4-yl)methyl]-4,4-dimethyl-1,2,3,4-tetrahydroisoquinolin-7-yl}amino)-6-(2-chlorophenyl)imidazo[1,2-a]pyrimido[5,4-e]pyrimidin-5(6H)-one]
< 10 nM | CC(=O)N1Cc2cc(Nc3ncc4c(=O)n(-c5c(Cl)cc(F)cc5Cl)c5nccn5c4n3)ccc2C2(CC2)C1 [Example 165, 2-[(2′-acetyl-2′,3′-dihydro-1′H-spiro[cyclopropane-1,4′-isoquinolin]-7′-yl)amino]-6-(2,6-dichloro-4-fluorophenyl)imidazo[1,2-a]pyrimido[5,4-e]pyrimidin-5(6H)-one]
< 10 nM | O=c1c2cnc(Nc3ccc(N4CCC(O)CC4)cc3)nc2n2ccnc2n1-c1c(Cl)cccc1Cl [Example 166, 6-(2,6-dichlorophenyl)-2-{[4-(4-hydroxypiperidin-1-yl)phenyl]amino}imidazo[1,2-a]pyrimido[5,4-e]pyrimidin-5(6H)-one]
10 to 100 nM | O=c1c2cnc(Nc3ccc(C4CCCCC4)cc3)nc2n2ccnc2n1-c1c(Cl)cccc1Cl [Example 167, 2-[(4-cyclohexylphenyl)amino]-6-(2,6-dichlorophenyl)imidazo[1,2-a]pyrimido[5,4-e]pyrimidin-5(6H)-one]
